Legend:
[1] = molecular target: T1, G12C K-Ras4B (1-169) (Homo sapiens, UniProt P01116, G12C); assay: Binding to KRAS G12C mutant, compound binding rate by LC-MS; conditions: final compound concentration 2 μM, 1 μM protein, 2 hours at 25° C.
T1 construct: G12C K-Ras4B (1-169) protein, which was a KRAS G12C mutant; His tag (N, cleaved yes); made in house; host or cells: E. coli BL21 (DE3)
Procedure, shortened: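 Covalent labelling at 2 μM final compound on a mix of 1 μM each wild-type and G12C K-Ras4B (1-169) (E. coli-expressed, tag removed) in 1×TBS, 0.1 mM TCEP, 2 h at 25° C., quenched with formic acid. Intact-protein ESI Q-TOF LC-MS; binding rate from adduct vs unbound protein signal, graded A–E in 20% bands.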

[2] = molecular target: T2, KRAS G12C mutant (Homo sapiens, UniProt P01116, G12C); assay: Inhibition of SOS1-mediated nucleotide (GDP-GTP) exchange reaction of KRAS G12C mutant, BODIPY FL GDP fluorescence; assay type: biochemical; conditions: preincubated 25° C. 4 hours with 25 nM KRAS G12C bound with BODIPY FL GDP; SOS1 100 nM, GppNHp 1 μM, 30 minutes
T2 construct: 50 μM G12C K-Ras4B (1-169) protein and 1 mM BODIPY® FL GDP; His tag (N, cleaved yes); made in house; host or cells: E. coli BL21 (DE3)
Procedure, shortened: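 KRAS G12C (1-169) loaded with BODIPY FL GDP (25 nM) was preincubated with compound (5% DMSO) for 4 h at 25 °C. Exchange then ran 30 min with SOS1 (564-1049, 100 nM) and 1 µM GppNHp. IC50 came from the 485/520 nm fluorescence change, normalized to DMSO and no-GppNHp controls.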

SMILES	binding rate for G12C K-Ras4B (1-169) [1]	IC50 [2] [nM]
C=CC(=O)N1CC(NC(=O)c2ccc(CNc3cc(C(C)(C)C)ccc3O)o2)C1 [Example 66, N-(1-Acryloylazetidin-3-yl)-5-(((5-(tert-butyl)-2-hydroxyphenyl)amino)methyl)furan-2-carboxamide]	E (less than 20%)	9800
C=CC(=O)N1CC(NC(=O)c2cc(CNc3cc(C(C)(C)C)c(Cl)cc3O)ccc2F)C1 [Example 23, N-(1-Acryloylazetidin-3-yl)-5-(((5-(tert-butyl)-4-chloro-2-hydroxyphenyl)amino)methyl)-2-fluorobenzamide]	C (40% or more and less than 60%)	1000
C=CC(=O)N1CC(NC(=O)c2ccc(CNc3cc(C(C)(C)C)c(Cl)cc3O)s2)C1 [Example 7, N-(1-Acryloylazetidin-3-yl)-5-(((5-(tert-butyl)-4-chloro-2-hydroxyphenyl)amino)methyl)thiophene-2-carboxamide]	A (80% or more)	1510
CN(C)C/C=C/C(=O)N1CC(NC(=O)c2cnc(CNc3cc(C(C)(C)C)c(Cl)cc3O)s2)C1 [Example 86, (E)-2-(((5-(tert-Butyl)-4-chloro-2-hydroxyphenyl)amino)methyl)-N-(1-(4-(dimethylamino)but-2-enoyl)azetidin-3-yl)thiazole-5-carboxamide]	B (60% or more and less than 80%)	701
C=CC(=O)N1CC(NC(=O)c2cnc(CCc3cc(C(C)(C)C)c(Cl)cc3O)n2C)C1 [Example 90, N-(1-Acryloylazetidin-3-yl)-2-(5-(tert-butyl)-4-chloro-2-hydroxyphenethyl)-1-methyl-1H-imidazole-5-carboxamide]	D (20% or more and less than 40%)	549
C=CC(=O)N1CC(N(C)C(=O)c2sc(CNc3cc(C(C)(C)C)c(Cl)cc3O)nc2C)C1 [Example 35, N-(1-Acryloylazetidin-3-yl)-2-(((5-(tert-butyl)-4-chloro-2-hydroxyphenyl)amino)methyl)-N,4-dimethylthiazole-5-carboxamide]	E (less than 20%)	463
C=CC(=O)N1CC(NC(=O)c2sc(CNc3cc(C(C)(C)C)c(Cl)cc3O)nc2C(F)(F)F)C1 [Example 24, N-(1-Acryloylazetidin-3-yl)-2-(((5-(tert-butyl)-4-chloro-2-hydroxyphenyl)amino)methyl)-4-(trifluoromethyl)thiazole-5-carboxamide]	C (40% or more and less than 60%)	780
C=CC(=O)N1CC(NC(=O)c2c(C)nc(C(O)c3cc(C(C)(C)C)c(F)cc3O)n2C)C1 (stereo not drawn) [Example 93, N-(1-Acryloylazetidin-3-yl)-2-((5-(tert-butyl)-4-fluoro-2-hydroxyphenyl) (hydroxy)methyl)-1,4-dimethyl-1H-imidazole-5-carboxamide]	E (less than 20%)	500
C=CC(=O)N1CC(NC(=O)c2ccc(CNc3cc(C(C)(C)C)c(Cl)cc3O)cc2)C1 [Example 3, N-(1-Acryloylazetidin-3-yl)-4-(((5-(tert-butyl)-4-chloro-2-hydroxyphenyl)amino)methyl)benzamide]	B (60% or more and less than 80%)	753
C=CC(=O)N1CC(NC(=O)c2cn(C)c(CNc3cc(C(C)(C)C)c(Cl)cc3O)n2)C1 [Example 25, N-(1-Acryloylazetidin-3-yl)-2-(((5-(tert-butyl)-4-chloro-2-hydroxyphenyl)amino)methyl)-1-methyl-1H-imidazole-4-carboxamide]	E (less than 20%)	4680
C=CC(=O)N1CC(NC(=O)c2cccc(CNc3cc(C(C)(C)C)c(Cl)cc3O)c2)C1 [Example 2, N-(1-Acryloylazetidin-3-yl)-3-(((5-(tert-butyl)-4-chloro-2-hydroxyphenyl)amino)methyl)benzamide]	B (60% or more and less than 80%)	815
C=CC(=O)N1CC(NC(=O)c2cnc(CNc3cc(C(C)(C)C)cc(C)c3O)n2C)C1 [Example 74, N-(1-Acryloylazetidin-3-yl)-2-(((5-(tert-butyl)-2-hydroxy-3-methylphenyl)amino)methyl)-1-methyl-1H-imidazole-5-carboxamide]	E (less than 20%)	701
C=CC(=O)N1CC(NC(=O)c2ccnc(CNc3cc(C(C)(C)C)c(Cl)cc3O)c2)C1 [Example 15, N-(1-Acryloylazetidin-3-yl)-2-(((5-(tert-butyl)-4-chloro-2-hydroxyphenyl)amino)methyl)isonicotinamide]	D (20% or more and less than 40%)	825

The next compounds have a lower IC50 [2] than those just listed; values first:

binding rate for G12C K-Ras4B (1-169) [1]	IC50 [2] [nM]	SMILES
A (80% or more)	233	C=CC(=O)N1CC(NC(=O)c2nc(CNc3cc(C(C)(C)C)c(Cl)cc3O)cn2C)C1 [Example 19, N-(1-Acryloylazetidin-3-yl)-4-(((5-(tert-butyl)-4-chloro-2-hydroxyphenyl)amino)methyl)-1-methyl-1H-imidazole-2-carboxamide]
B (60% or more and less than 80%)	225	C=CC(=O)N1CC(NC(=O)c2c(C)nc(C(C)Nc3cc(C(C)(C)C)c(Cl)cc3O)n2C)C1 (stereo not drawn) [Example 81, N-(1-Acryloylazetidin-3-yl)-2-(1-((5-(tert-butyl)-4-chloro-2-hydroxyphenyl)amino)ethyl)-1,4-dimethyl-1H-imidazole-5-carboxamide]
C (40% or more and less than 60%)	170	C=CC(=O)N1CC(NC(=O)c2c(C)nc(Cc3cc(C(C)(C)C)c(F)cc3O)n2C)C1 [Example 94, N-(1-Acryloylazetidin-3-yl)-2-(5-(tert-butyl)-4-fluoro-2-hydroxybenzyl)-1,4-dimethyl-1H-imidazole-5-carboxamide]
A (80% or more)	164	C=CC(=O)N1CC(NC(=O)c2c(C)nc(CNc3cc4c(cc3O)CCC4(C)C)n2C)C1 [Example 72, N-(1-Acryloylazetidin-3-yl)-2-(((6-hydroxy-3,3-dimethyl-2,3-dihydro-1H-inden-5-yl)amino)methyl)-1,4-dimethyl-1H-imidazole-5-carboxamide]
C (40% or more and less than 60%)	109	Cc1nc(CNc2cc(C(C)(C)C)c(Cl)cc2O)sc1C(=O)NC1CN(C(=O)/C=C/CN(C)C)C1 [Example 88, (E)-2-(((5-(tert-Butyl)-4-chloro-2-hydroxyphenyl)amino)methyl)-N-(1-(4-(dimethylamino)but-2-enoyl)azetidin-3-yl)-4-methylthiazole-5-carboxamide]
B (60% or more and less than 80%)	84	C=CC(=O)N1CC(NC(=O)c2cnc(CNc3cc(C(C)(C)C)c(CC)cc3O)n2C)C1 [Example 70, N-(1-Acryloylazetidin-3-yl)-2-(((5-(tert-butyl)-4-ethyl-2-hydroxyphenyl)amino)methyl)-1-methyl-1H-imidazole-5-carboxamide]
A (80% or more)	80	C=CC(=O)N1CC(N(C)C(=O)c2cc(CNc3cc(C(C)(C)C)c(Cl)cc3O)co2)C1 [Example 34, N-(1-Acryloylazetidin-3-yl)-4-(((5-(tert-butyl)-4-chloro-2-hydroxyphenyl)amino)methyl)-N-methylfuran-2-carboxamide]
B (60% or more and less than 80%)	69	C=CC(=O)N1CC(NC(=O)c2cnc(CNc3cc(C(C)(C)C)c(Cl)c(F)c3O)n2C)C1 [Example 73, N-(1-Acryloylazetidin-3-yl)-2-(((5-(tert-butyl)-4-chloro-3-fluoro-2-hydroxyphenyl)amino)methyl)-1-methyl-1H-imidazole-5-carboxamide]
A (80% or more)	67	C=CC(=O)N1CC(NC(=O)c2nc(CNc3cc(C(C)(C)C)c(Cl)cc3O)cs2)C1 [Example 10, N-(1-Acryloylazetidin-3-yl)-4-(((5-(tert-butyl)-4-chloro-2-hydroxyphenyl)amino)methyl)thiazole-2-carboxamide]
A (80% or more)	61	CN(C)C/C=C/C(=O)N1CC(NC(=O)c2cnc(CNc3cc(C(C)(C)C)c(Cl)cc3O)n2C)C1 [Example 89, (E)-2-(((5-(tert-Butyl)-4-chloro-2-hydroxyphenyl)amino)methyl)-N-(1-(4-(dimethylamino)but-2-enoyl)azetidin-3-yl)-1-methyl-1H-imidazole-5-carboxamide]
B (60% or more and less than 80%)	23	C=CC(=O)N1CC(NC(=O)c2cnc(CNc3nc(C(C)(C)C)c(Cl)cc3O)n2C)C1 [Example 83, N-(1-Acryloylazetidin-3-yl)-2-(((6-(tert-butyl)-5-chloro-3-hydroxypyridin-2-yl)amino)methyl)-1-methyl-1H-imidazole-5-carboxamide]

Reference: patent publication US12479834B2, “Phenol compound or salt thereof” (TAIHO PHARMACEUTICAL CO., LTD., priority 2019, dated 2025)
